Molecular target: CB1 (CNR1) (Homo sapiens, UniProt P21554)
Experiment: cAMP CNR1 Hunter cell line antagonist assay (CB1 assay)
Type: cell-based
Settings: antagonist mode, cAMP CNR1 Hunter cells, EC80 agonist; read-out: CB1 assay, Efficacy (IC50)
Summary of the method: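 Antagonist mode in CNR1 Hunter cells: compound preincubated 30 min at 37 °C, then EC80 agonist for 30 min at 37 °C. cAMP measured by enzyme-fragment complementation chemiluminescence after lysis (1 h) and detection (3 h, room temperature); IC50 fitted from the dose response.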

CB1 (CNR1), sequence (P21554 whole entry): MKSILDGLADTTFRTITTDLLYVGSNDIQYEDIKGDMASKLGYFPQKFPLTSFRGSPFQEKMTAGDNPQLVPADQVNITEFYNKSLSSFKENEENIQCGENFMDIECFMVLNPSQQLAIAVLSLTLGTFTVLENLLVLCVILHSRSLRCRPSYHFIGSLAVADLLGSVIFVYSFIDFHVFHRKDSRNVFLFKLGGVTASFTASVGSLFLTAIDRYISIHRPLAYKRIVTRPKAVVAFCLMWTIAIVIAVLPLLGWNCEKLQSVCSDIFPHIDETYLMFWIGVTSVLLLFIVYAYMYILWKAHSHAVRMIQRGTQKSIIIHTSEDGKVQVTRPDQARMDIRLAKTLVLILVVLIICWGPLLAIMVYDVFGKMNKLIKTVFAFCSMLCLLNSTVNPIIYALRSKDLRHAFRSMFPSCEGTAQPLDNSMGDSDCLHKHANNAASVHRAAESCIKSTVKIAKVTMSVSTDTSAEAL

Row | SMILES | IC50 [µM]
1 | Cc1ccc(NS(=O)(=O)c2cc(Br)cc3c2OCCNC3=O)cc1Cl [BC19607] | 1 to 25
2 | CC1Oc2c(cc(Br)cc2S(=O)(=O)NCCc2ccc(OC(F)(F)F)cc2)NC1=O (centres unmarked) [BC19364] | 1 to 25
3 | O=C1COc2cc(S(=O)(=O)NC3CCC(O)CC3)c(Br)cc2N1 (centres unmarked) [BC19389] | ≥ 25
4 | Cc1ccc(NS(=O)(=O)c2cc(Br)cc3c2OCCNC3=O)cc1F [BC19552] | ≥ 25
5 | CC1Oc2cc(S(=O)(=O)Nc3ccc(F)cc3F)c(Br)cc2N(C)C1=O (centres unmarked) [BC19799] | ≥ 25
6 | CCC1Oc2cc(S(=O)(=O)Nc3ccc(C)c(Cl)c3)c(Br)cc2N(C)C1=O (centres unmarked) [BC19938] | ≥ 25
7 | CC(C)CC1Oc2c(cc(Br)cc2S(=O)(=O)Nc2ccc(F)cc2)NC1=O (centres unmarked) [BC19781] | 1 to 25
8 | CC1Oc2cc(S(=O)(=O)Nc3ccc(OC(F)(F)F)cc3)c(Cl)cc2NC1=O (centres unmarked) [BC19354] | ≥ 25
9 | CC1Oc2c(cc(Cl)cc2S(=O)(=O)Nc2ccc(F)cc2)NC1=O (centres unmarked) [BC19722] | 1 to 25
10 | Cc1ccc(NS(=O)(=O)c2cc(Br)cc3c2OC(C)C(=O)N3)cc1Cl (centres unmarked) [BC19225] | ≥ 25
11 | CCC1Oc2cc(S(=O)(=O)Nc3ccc(OC(F)(F)F)cc3)c(Cl)cc2NC1=O (centres unmarked) [BC19733] | 1 to 25
12 | CC(C)c1ccc(NS(=O)(=O)c2cc(Cl)cc3c2OCC(=O)N3)cc1 [BC19174] | ≥ 25
13 | CC1Oc2c(cc(Br)cc2S(=O)(=O)N2CCOCC2)NC1=O (centres unmarked) [BC19226] | ≥ 25
14 | CCC1Oc2cc(S(=O)(=O)NC3CCCCC3)c(Br)cc2NC1=O (centres unmarked) [BC19223] | 1 to 25
15 | CC1Oc2c(cc(Br)cc2S(=O)(=O)Nc2cccc(Cl)c2)N(C)C1=O (centres unmarked) [BC19904] | 1 to 25
16 | CCC1Oc2cc(S(=O)(=O)Nc3ccc(Cl)cc3)c(Br)cc2NC1=O (centres unmarked) [BC19286] | ≥ 25
17 | CC1Oc2c(cc(Br)cc2S(=O)(=O)Nc2ccc(F)cc2Cl)NC1=O (centres unmarked) [BC19289] | ≥ 25
18 | O=C1NCCOc2c1cc(Br)cc2S(=O)(=O)Nc1ccc(F)cc1F [BC19608] | ≥ 25
19 | CCC1Oc2cc(S(=O)(=O)Nc3ccc(C)cc3)c(Cl)cc2NC1=O (centres unmarked) [BC19753] | 1 to 25
20 | CCC1Oc2cc(S(=O)(=O)Nc3ccc(F)cc3Cl)c(Cl)cc2NC1=O (centres unmarked) [BC19755] | 1 to 25
21 | O=C1CCOc2cc(S(=O)(=O)Nc3cccc(F)c3)c(Br)cc2N1 [BC19654] | ≥ 25
22 | CC(C)CC1Oc2c(cc(Br)cc2S(=O)(=O)Nc2ccc(F)cc2Cl)NC1=O (centres unmarked) [BC19777] | ≥ 25
23 | CCC1Oc2cc(S(=O)(=O)Nc3cccc(F)c3)c(Br)cc2NC1=O (centres unmarked) [BC19220] | ≥ 25

Row | SMILES | IC50 [µM]
24 | O=C1CCOc2cc(S(=O)(=O)Nc3ccc(Cl)cc3)c(Br)cc2N1 [BC19656] | ≥ 25
25 | CC(C)CC1Oc2c(cc(Br)cc2S(=O)(=O)Nc2ccccc2)NC1=O (centres unmarked) [BC19761] | 1 to 25
26 | CCc1cccc(NS(=O)(=O)c2cc(Br)cc3c2OCC(=O)N3)c1 [BC19180] | ≥ 25
27 | CC(C)CC1Oc2c(cc(Br)cc2S(=O)(=O)Nc2ccc(OC(F)(F)F)cc2)NC1=O (centres unmarked) [BC19757] | ≥ 25
28 | CCC1Oc2c(cc(Cl)cc2S(=O)(=O)Nc2ccc(F)c(F)c2)NC1=O (centres unmarked) [BC19736] | ≥ 25
29 | CC1Oc2c(cc(Br)cc2S(=O)(=O)NCc2ccc(OC(F)(F)F)cc2)NC1=O (centres unmarked) [BC19363] | 1 to 25
30 | CCc1ccc(NS(=O)(=O)c2cc(Br)cc3c2OCC(=O)N3)cc1 [BC19179] | 1 to 25
31 | CCC1Oc2c(cc(Br)cc2S(=O)(=O)Nc2ccc(F)cc2F)N(C)C1=O (centres unmarked) [BC19913] | 1 to 25
32 | CCc1ccc(NS(=O)(=O)c2cc3c(cc2Br)NC(=O)C(CC(C)C)O3)cc1 (centres unmarked) [BC19764] | 1 to 25
33 | CCC1Oc2cc(S(=O)(=O)Nc3cc(Cl)ccc3C)c(Cl)cc2NC1=O (centres unmarked) [BC19215] | ≥ 25
34 | CCC1Oc2cc(S(=O)(=O)Nc3ccc(C)cc3)c(Br)cc2NC1=O (centres unmarked) [BC19224] | ≥ 25
35 | CCC1Oc2c(cc(Br)cc2S(=O)(=O)Nc2cccc(F)c2)NC1=O (centres unmarked) [BC19231] | ≥ 25
36 | CC1Oc2cc(S(=O)(=O)Nc3ccc(OC(F)(F)F)cc3)c(Br)cc2N(C)C1=O (centres unmarked) [BC19784] | ≥ 25
37 | CS(=O)(=O)c1cc2c(c(S(=O)(=O)Nc3cccc(Cl)c3)c1)OCC(=O)N2 [BC19427] | ≥ 25
38 | Cc1ccc(Cl)cc1NS(=O)(=O)c1cc2c(cc1Cl)NC(=O)CO2 [BC19162] | < 1
39 | CC1Oc2c(cc(Br)cc2S(=O)(=O)Nc2ccccc2)N(C)C1=O (centres unmarked) [BC19789] | ≥ 25
40 | CCC1Oc2c(cc(Cl)cc2S(=O)(=O)Nc2ccc(F)cc2Cl)NC1=O (centres unmarked) [BC19756] | 1 to 25
41 | CCC1Oc2c(cc(Br)cc2S(=O)(=O)Nc2ccc(C(C)C)cc2)N(C)C1=O (centres unmarked) [BC19933] | ≥ 25
42 | CC(=O)N1CC(=O)Nc2ccc(S(=O)(=O)N3CCCC3)cc21 [BC19295] | ≥ 25
43 | CCC1Oc2c(cc(Br)cc2S(=O)(=O)Nc2ccc(F)c(F)c2)N(C)C1=O (centres unmarked) [BC19925] | 1 to 25
44 | CCc1ccc(NS(=O)(=O)c2cc3c(cc2Cl)NC(=O)C(CC)O3)cc1 (centres unmarked) [BC19741] | 1 to 25
45 | CC1Oc2cc(S(=O)(=O)Nc3ccc(F)cc3Cl)c(Br)cc2N(C)C1=O (centres unmarked) [BC19907] | ≥ 25
46 | COc1ccc(NS(=O)(=O)c2cc(Br)cc3c2OCCNC3=O)cc1 [BC19606] | ≥ 25

Row | SMILES | IC50 [µM]
47 | O=C1COc2c(cc(Cl)cc2S(=O)(=O)Nc2ccccc2)N1 [BC19168] | 1 to 25
48 | Cc1ccc(NS(=O)(=O)c2cc3c(cc2Br)N(C)C(=O)C(C)O3)cc1 (centres unmarked) [BC19912] | ≥ 25
49 | CS(=O)(=O)c1cc2c(c(S(=O)(=O)Nc3ccc(F)c(F)c3)c1)OCC(=O)N2 [BC19481] | ≥ 25
50 | O=C1CCOc2cc(S(=O)(=O)Nc3ccc(OC(F)(F)F)cc3)c(Br)cc2N1 [BC19652] | ≥ 25
51 | CCC1Oc2c(cc(Cl)cc2S(=O)(=O)Nc2ccc(F)cc2)NC1=O (centres unmarked) [BC19732] | 1 to 25
52 | Cc1ccc(Cl)cc1NS(=O)(=O)c1cc(Cl)cc2c1OCC(=O)N2 [BC19170] | 1 to 25
53 | Cc1c(Cl)cc2c(c1S(=O)(=O)Nc1ccc(OC(F)(F)F)cc1)OCC(=O)N2 [BC19490] | ≥ 25
54 | CCC1Oc2c(cc(Br)cc2S(=O)(=O)NCc2ccccc2)NC1=O (centres unmarked) [BC19230] | ≥ 25
55 | CCc1ccc(NS(=O)(=O)c2cc(S(C)(=O)=O)cc3c2OCC(=O)N3)cc1 [BC19484] | ≥ 25
56 | CCS(=O)(=O)c1cc2c(c(S(=O)(=O)Nc3ccc(F)c(F)c3)c1)OCC(=O)N2 [BC19421] | ≥ 25
57 | O=C1COc2cc(S(=O)(=O)Nc3ccc(OC(F)(F)F)cc3)c(Cl)cc2N1 [BC19164] | < 1
58 | Cc1ccc(NS(=O)(=O)c2cc(Cl)cc3c2OC(C)C(=O)N3)cc1F (centres unmarked) [BC19701] | 1 to 25
59 | Cc1ccc(NS(=O)(=O)c2cc3c(cc2Cl)NC(=O)CO3)cc1Cl [BC19165] | 1 to 25
60 | COc1ccc(NS(=O)(=O)c2cc(Cl)cc3c2OC(C)C(=O)N3)cc1Cl (centres unmarked) [BC19292] | 1 to 25
61 | COc1ccc(NS(=O)(=O)c2cc(S(C)(=O)=O)cc3c2OCC(=O)N3)cc1Cl [BC19429] | ≥ 25
62 | CC1Oc2cc(S(=O)(=O)Nc3ccc(F)cc3F)c(Cl)cc2NC1=O (centres unmarked) [BC19709] | 1 to 25
63 | CC(C)CC1Oc2cc(S(=O)(=O)Nc3ccc(F)c(F)c3)c(Br)cc2NC1=O (centres unmarked) [BC19760] | 1 to 25
64 | CCS(=O)(=O)c1cc2c(c(S(=O)(=O)Nc3ccc(F)cc3F)c1)OCC(=O)N2 [BC19545] | ≥ 25
65 | COc1ccc(NS(=O)(=O)c2cc3c(cc2Br)NC(=O)CCO3)cc1 [BC19692] | < 1
66 | CCC1Oc2c(cc(Br)cc2S(=O)(=O)Nc2cccc(Cl)c2)NC1=O (centres unmarked) [BC19232] | ≥ 25
67 | CCc1cccc(NS(=O)(=O)c2cc(Br)cc3c2OCCNC3=O)c1 [BC19609] | 1 to 25
68 | CCC1Oc2cc(S(=O)(=O)Nc3ccc(F)cc3F)c(Br)cc2N(C)C1=O (centres unmarked) [BC19914] | 1 to 25
69 | CCNS(=O)(=O)c1cc(Cl)cc2c1OC(C)C(=O)N2 (centres unmarked) [BC19294] | 1 to 25

Row | SMILES | IC50 [µM]
70 | CCc1ccc(NS(=O)(=O)c2cc3c(cc2Br)NC(=O)C(C)O3)cc1 (centres unmarked) [BC19216] | < 1
71 | CC1Oc2cc(S(=O)(=O)Nc3ccccc3)c(Cl)cc2NC1=O (centres unmarked) [BC19206] | ≥ 25
72 | CC(C)c1ccc(NS(=O)(=O)c2cc3c(cc2Cl)NC(=O)CO3)cc1 [BC19136] | < 1
73 | CCOc1ccc(NS(=O)(=O)c2cc3c(cc2Cl)NC(=O)C(C)O3)cc1 (centres unmarked) [BC19281] | ≥ 25
74 | CCC1Oc2c(cc(Br)cc2S(=O)(=O)Nc2ccc(OC)cc2)N(C)C1=O (centres unmarked) [BC19935] | ≥ 25
75 | CC(C)CC(=O)N1c2cc(S(=O)(=O)N3CCCC3)ccc2NC(=O)C1C (centres unmarked) [BC19184] | 1 to 25
76 | CC1Oc2cc(S(=O)(=O)Nc3ccc(F)c(F)c3)c(Cl)cc2NC1=O (centres unmarked) [BC19698] | ≥ 25
77 | CCc1ccc(NS(=O)(=O)c2cc(S(=O)(=O)CC)cc3c2OCC(=O)N3)cc1 [BC19492] | ≥ 25
78 | CC(C)(C)C1CCC(NS(=O)(=O)c2cc(Br)cc3c2OCC(=O)N3)CC1 (centres unmarked) [BC19380] | ≥ 25
79 | CC1Oc2c(cc(Cl)cc2S(=O)(=O)Nc2cccc(F)c2)NC1=O (centres unmarked) [BC19714] | ≥ 25
80 | CCCNS(=O)(=O)c1cc(Br)cc2c1OC(CC)C(=O)N2 (centres unmarked) [BC19229] | ≥ 25
81 | O=C1COc2cc(S(=O)(=O)NCc3ccc(C(F)(F)F)cc3)c(Br)cc2N1 [BC19391] | ≥ 25
82 | CCC1Oc2cc(S(=O)(=O)Nc3ccc(OC)cc3)c(Br)cc2N(C)C1=O (centres unmarked) [BC19936] | ≥ 25
83 | O=C1COc2cc(S(=O)(=O)NCc3ccc(OC(F)(F)F)cc3)c(Br)cc2N1 [BC19392] | ≥ 25
84 | Cc1ccc(NS(=O)(=O)c2cc(Br)cc3c2OCCC(=O)N3)cc1Cl [BC19651] | ≥ 25
85 | CC1Oc2c(cc(Cl)cc2S(=O)(=O)Nc2ccc(C(C)C)cc2)NC1=O (centres unmarked) [BC19705] | 1 to 25
86 | CS(=O)(=O)c1cc2c(c(S(=O)(=O)Nc3ccccc3)c1)OCC(=O)N2 [BC19482] | ≥ 25
87 | CCC1Oc2c(cc(Cl)cc2S(=O)(=O)Nc2ccccc2)NC1=O (centres unmarked) [BC19738] | < 1
88 | CC1Oc2cc(S(=O)(=O)Nc3ccc(F)cc3)c(Br)cc2N(C)C1=O (centres unmarked) [BC19910] | ≥ 25
89 | O=C1COc2cc(S(=O)(=O)NCc3ccc(F)cc3F)c(Br)cc2N1 [BC19393] | ≥ 25

From patent publication US20240000806A1, “METHODS AND MATERIALS FOR INHIBITING CB1 ACTIVITY” (University of Pittsburgh - Of the Commonwealth System of …, priority 2020, published 2024)
